The source of these data is patent publication US20240041877A1, “DOSAGE REGIME AND METHOD FOR TREATING PULMONARY ARTERIAL HYPERTENSION” (Altavant Sciences GmbH, priority 2019, published 2024).

A short description of series [1]: Cardiac conduction (QTcF) in healthy adult subjects. It is filed as in vivo, human.
A further series in a line: clinical. To be noted: human, plasma, oral, 100 mg.

Structures are written as SMILES.

Text for clinical: Food effect was to be evaluated in Part 1, Period 2.
Pharmacokinetic data were to be summarized descriptively.

Take `Nc1nc(O[C@H](c2ccc(Cl)cc2-c2ccccc2)C(F)(F)F)cc(N2CCC3(CC2)CN[C@H](C(=O)O)C3)n1` [KAR5417, (S)-8-(2-amino-6-((R)-1-(5-chloro-[1,1T-biphenyl]-2-yl)-2,2,2-trifluoroeth-oxy)pyrimidin-4-yl)-2,8-diazaspiro[4.5]decane-3-carboxylic acid]: in series [1], the “tendency to increase QTcF in a dose-dependent manner” value is listed as “Neither the prodrug (KAR5585) nor the active drug (KAR5417) showed any tendency to increase QTcF in a dose-dependent manner”. In addition, in the series “clinical”, the Cmax at 1 day amounted to 121 ng/mL and the highest level (Cmax at 14 day) was 194 ng/mL.

Broadly, the Cmax is the highest concentration seen after dosing.
